For orientation: Ki means a measure of affinity in units of concentration, obtained from inhibition or displacement. A higher Ki goes with weaker binding.

The target in test [1] is T1, D(2) dopamine receptor (Homo sapiens, UniProt P14416). Description: Displacement of [3H]spiperone from human D2long receptor stably expressed in CHO cell membranes by competitive binding assay. On the technique in general: In a radioligand displacement assay an active substance lowers the binding of a labelled ligand.
T1 sequence (P14416 whole entry): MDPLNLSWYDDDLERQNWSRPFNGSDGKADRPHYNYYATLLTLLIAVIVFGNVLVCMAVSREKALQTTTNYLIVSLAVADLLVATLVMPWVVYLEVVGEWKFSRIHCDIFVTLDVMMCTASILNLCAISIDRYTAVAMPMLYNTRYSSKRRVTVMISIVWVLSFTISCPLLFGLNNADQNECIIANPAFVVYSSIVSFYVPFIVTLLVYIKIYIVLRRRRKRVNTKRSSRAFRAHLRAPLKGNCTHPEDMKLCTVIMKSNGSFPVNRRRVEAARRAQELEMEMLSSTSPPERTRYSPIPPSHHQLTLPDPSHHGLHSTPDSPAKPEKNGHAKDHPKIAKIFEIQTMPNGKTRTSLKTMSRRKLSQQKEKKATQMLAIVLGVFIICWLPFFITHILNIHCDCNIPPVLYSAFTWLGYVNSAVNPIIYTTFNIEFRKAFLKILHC
The target in test [2] is T1, D(2) dopamine receptor. Description: Displacement of [3H]spiperone from human D2short receptor stably expressed in CHO cell membranes by competitive binding assay.
Another test concerns the target D(3) dopamine receptor (Homo sapiens, UniProt P35462). In words: Displacement of [3H]spiperone from human D3 receptor stably expressed in CHO cell membranes by competitive binding assay.
In a further test the target is T2, D(4) dopamine receptor (Homo sapiens, UniProt P21917).
T2 sequence (P21917 whole entry): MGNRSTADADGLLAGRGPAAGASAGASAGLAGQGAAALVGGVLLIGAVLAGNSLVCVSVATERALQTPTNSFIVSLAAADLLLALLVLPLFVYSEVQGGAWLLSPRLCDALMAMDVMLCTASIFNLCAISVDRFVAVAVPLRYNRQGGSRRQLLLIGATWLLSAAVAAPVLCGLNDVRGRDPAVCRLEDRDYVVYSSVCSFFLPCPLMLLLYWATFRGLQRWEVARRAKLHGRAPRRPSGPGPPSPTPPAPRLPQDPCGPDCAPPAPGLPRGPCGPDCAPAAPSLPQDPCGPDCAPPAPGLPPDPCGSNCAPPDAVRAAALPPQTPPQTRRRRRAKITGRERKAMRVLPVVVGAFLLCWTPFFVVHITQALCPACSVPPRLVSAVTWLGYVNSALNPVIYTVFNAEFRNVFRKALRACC
Description: Displacement of [3H]spiperone from human D4.4 receptor stably expressed in CHO cell membranes by competitive binding assay.

The target of another test is D(1A) dopamine receptor (Sus scrofa, UniProt P50130). Description: Displacement of [3H]SCH23390 from porcine striatal membranes D1 receptor by competitive binding assay.
Sequence of D(1A) dopamine receptor (P50130 whole entry): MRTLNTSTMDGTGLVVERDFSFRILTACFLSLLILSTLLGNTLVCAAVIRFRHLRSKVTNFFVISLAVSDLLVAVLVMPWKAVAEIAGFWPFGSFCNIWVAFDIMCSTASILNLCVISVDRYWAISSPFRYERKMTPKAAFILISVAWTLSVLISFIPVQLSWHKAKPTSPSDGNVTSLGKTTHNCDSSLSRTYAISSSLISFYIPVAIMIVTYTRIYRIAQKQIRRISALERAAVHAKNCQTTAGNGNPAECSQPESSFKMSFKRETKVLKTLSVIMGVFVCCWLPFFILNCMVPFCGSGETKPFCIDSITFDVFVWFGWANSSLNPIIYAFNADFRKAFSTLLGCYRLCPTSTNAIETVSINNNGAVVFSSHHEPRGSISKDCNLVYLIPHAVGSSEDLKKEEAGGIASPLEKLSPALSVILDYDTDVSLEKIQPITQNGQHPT
In test [3] the test system is CHO. Description: Selectivity ratio of Ki for human D3 receptor stably expressed in CHO cell membranes to Ki for human D4.4 receptor stably expressed in CHO cell membranes. The test is classed as cell-based.
For test [4], the system named is CHO. In words: Selectivity ratio of Ki for human D4.4 receptor stably expressed in CHO cell membranes to Ki for human D3 receptor stably expressed in CHO cell membranes. It counts as cell-based.

Sequence of D(3) dopamine receptor (P35462 whole entry): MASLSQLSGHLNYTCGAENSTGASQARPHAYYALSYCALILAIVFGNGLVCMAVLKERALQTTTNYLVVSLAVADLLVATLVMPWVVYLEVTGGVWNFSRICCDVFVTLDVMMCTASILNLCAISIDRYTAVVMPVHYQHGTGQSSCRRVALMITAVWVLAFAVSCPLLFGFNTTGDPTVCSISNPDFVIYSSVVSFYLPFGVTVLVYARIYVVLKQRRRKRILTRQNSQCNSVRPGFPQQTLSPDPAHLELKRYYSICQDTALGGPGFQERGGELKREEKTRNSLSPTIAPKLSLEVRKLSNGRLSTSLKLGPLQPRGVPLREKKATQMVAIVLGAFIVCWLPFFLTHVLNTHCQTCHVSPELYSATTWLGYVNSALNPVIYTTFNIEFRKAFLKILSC

In the case of `O=C(CCC(=O)N1CCC(O)(c2ccc(Cl)cc2)CC1)c1ccc(F)cc1`, the Ki at D(2) dopamine receptor [1] was 0.86 µM; on D(2) dopamine receptor [2], 0.47 µM; on D(3) dopamine receptor it was 1.7 µM; on D(4) dopamine receptor, 18 µM; at D(1A) dopamine receptor, 19 µM.

With `O=C(CCCCCCCCCCCCCCCCCCC(=O)OC1(c2ccc(Cl)cc2)CCN(CCCC(=O)c2ccc(F)cc2)CC1)OC1(c2ccc(Cl)cc2)CCN(CCCC(=O)c2ccc(F)cc2)CC1`, the Ki amounted to 0.025 µM on D(2) dopamine receptor [1]; 0.027 µM at D(2) dopamine receptor [2]; 0.082 µM at D(3) dopamine receptor; 0.16 µM on D(4) dopamine receptor; 1.4 µM on D(1A) dopamine receptor.

Take `O=C(CCCCCCCCCCC(=O)OC1(c2ccc(Cl)cc2)CCN(CCCC(=O)c2ccc(F)cc2)CC1)OC1(c2ccc(Cl)cc2)CCN(CCCC(=O)c2ccc(F)cc2)CC1`: the Ki on D(2) dopamine receptor [1] is 0.066 µM; on D(2) dopamine receptor [2] it was 0.046 µM; on D(3) dopamine receptor it was 0.21 µM; at D(4) dopamine receptor, 2.2 µM; on D(1A) dopamine receptor, 1.1 µM.

For the compound `O=C(CCCC(=O)OC1(c2ccc(Cl)cc2)CCN(CCCC(=O)c2ccc(F)cc2)CC1)OC1(c2ccc(Cl)cc2)CCN(CCCC(=O)c2ccc(F)cc2)CC1`, the Ki turned out to be 0.012 µM on D(2) dopamine receptor [1]; 0.012 µM on D(2) dopamine receptor [2]; 0.031 µM on D(3) dopamine receptor; 0.033 µM at D(4) dopamine receptor; 0.22 µM at D(1A) dopamine receptor.

`CC(=O)OC1(c2ccc(Cl)cc2)CCN(CCCC(=O)c2ccc(F)cc2)CC1`: the Ki turned out to be 0.0045 µM on D(2) dopamine receptor [1]; 0.0045 µM at D(2) dopamine receptor [2]; 0.056 µM at D(3) dopamine receptor; 0.0093 µM on D(4) dopamine receptor; 0.059 µM at D(1A) dopamine receptor. Also, the Ratio Ki in the test with CHO [3] amounted to 8.

Turning to `Cc1ccc(C(=O)OC2(c3ccc(Cl)cc3)CCN(CCCC(=O)c3ccc(F)cc3)CC2)cc1`, the Ki is 0.056 µM at D(2) dopamine receptor [1]; 0.047 µM on D(2) dopamine receptor [2]; 0.27 µM on D(3) dopamine receptor; 0.13 µM at D(4) dopamine receptor; 0.55 µM on D(1A) dopamine receptor.

`O=C(CCc1cn(CCOCCOCCOCCn2cc(CCC(=O)OC3(c4ccc(Cl)cc4)CCN(CCCC(=O)c4ccc(F)cc4)CC3)nn2)nn1)OC1(c2ccc(Cl)cc2)CCN(CCCC(=O)c2ccc(F)cc2)CC1`: the Ki at D(2) dopamine receptor [1] came out at 0.001 µM; at D(2) dopamine receptor [2], 0.003 µM; on D(3) dopamine receptor, 0.0098 µM; at D(4) dopamine receptor, 0.041 µM; on D(1A) dopamine receptor it was 0.12 µM.

Turning to `O=C(CCCCCC(=O)OC1(c2ccc(Cl)cc2)CCN(CCCC(=O)c2ccc(F)cc2)CC1)OC1(c2ccc(Cl)cc2)CCN(CCCC(=O)c2ccc(F)cc2)CC1`, the inhibitory constant (Ki) on D(2) dopamine receptor [1] turned out to be 0.0033 µM; at D(2) dopamine receptor [2], 0.0026 µM; on D(3) dopamine receptor, 0.011 µM; on D(4) dopamine receptor it was 0.36 µM; on D(1A) dopamine receptor, 0.28 µM.

As to `O=C(CCCCCCCCCCCCCCCCCCCCC(=O)OC1(c2ccc(Cl)cc2)CCN(CCCC(=O)c2ccc(F)cc2)CC1)OC1(c2ccc(Cl)cc2)CCN(CCCC(=O)c2ccc(F)cc2)CC1`, the Ki on D(2) dopamine receptor [1] came out at 0.31 µM; on D(2) dopamine receptor [2], 0.28 µM; on D(3) dopamine receptor it was 0.5 µM; on D(4) dopamine receptor, 0.85 µM; at D(1A) dopamine receptor, 1.5 µM.

With `O=C(CCCCCCCCCCCCCCCCC(=O)OC1(c2ccc(Cl)cc2)CCN(CCCC(=O)c2ccc(F)cc2)CC1)OC1(c2ccc(Cl)cc2)CCN(CCCC(=O)c2ccc(F)cc2)CC1`, the Ki was 0.16 µM at D(2) dopamine receptor [1]; 0.15 µM on D(2) dopamine receptor [2]; 0.38 µM at D(3) dopamine receptor; 0.57 µM at D(4) dopamine receptor; 0.93 µM at D(1A) dopamine receptor.

As for `O=C(CCCCCCCC(=O)OC1(c2ccc(Cl)cc2)CCN(CCCC(=O)c2ccc(F)cc2)CC1)OC1(c2ccc(Cl)cc2)CCN(CCCC(=O)c2ccc(F)cc2)CC1`, the Ki came to 0.0056 µM at D(2) dopamine receptor [1]; 0.0065 µM at D(2) dopamine receptor [2]; 0.0091 µM on D(3) dopamine receptor; 0.52 µM at D(4) dopamine receptor; 1.2 µM on D(1A) dopamine receptor.

In the case of `CN(CCC(=O)OC1(c2ccc(Cl)cc2)CCN(CCCC(=O)c2ccc(F)cc2)CC1)CCN(C)CCC(=O)OC1(c2ccc(Cl)cc2)CCN(CCCC(=O)c2ccc(F)cc2)CC1`, the Ki on D(2) dopamine receptor [1] worked out at 0.0032 µM; at D(2) dopamine receptor [2] it was 0.0022 µM; at D(3) dopamine receptor, 0.047 µM; at D(4) dopamine receptor, 0.029 µM; at D(1A) dopamine receptor, 0.26 µM.

In the case of `O=C(CCc1cn(CCCCCCCCCCn2cc(CCC(=O)OC3(c4ccc(Cl)cc4)CCN(CCCC(=O)c4ccc(F)cc4)CC3)nn2)nn1)OC1(c2ccc(Cl)cc2)CCN(CCCC(=O)c2ccc(F)cc2)CC1`, the Ki is 0.0049 µM at D(2) dopamine receptor [1]; 0.0054 µM on D(2) dopamine receptor [2]; 0.0059 µM on D(3) dopamine receptor; 0.089 µM at D(4) dopamine receptor; 0.086 µM at D(1A) dopamine receptor.

Turning to `O=C(CCCCCCCCC(=O)OC1(c2ccc(Cl)cc2)CCN(CCCC(=O)c2ccc(F)cc2)CC1)OC1(c2ccc(Cl)cc2)CCN(CCCC(=O)c2ccc(F)cc2)CC1`, the Ki was 0.015 µM on D(2) dopamine receptor [1]; 0.031 µM at D(2) dopamine receptor [2]; 0.039 µM on D(3) dopamine receptor; 0.49 µM at D(4) dopamine receptor; 1.4 µM at D(1A) dopamine receptor.

With `O=C(CCCCC(=O)OC1(c2ccc(Cl)cc2)CCN(CCCC(=O)c2ccc(F)cc2)CC1)OC1(c2ccc(Cl)cc2)CCN(CCCC(=O)c2ccc(F)cc2)CC1`, the Ki on D(2) dopamine receptor [1] was determined as 0.003 µM; on D(2) dopamine receptor [2], 0.0023 µM; on D(3) dopamine receptor it was 0.011 µM; on D(4) dopamine receptor, 0.041 µM; on D(1A) dopamine receptor it was 0.22 µM. In the test with CHO [4], the Ratio Ki was found to be 2.

In the case of `O=C(CCN1CCN(CCC(=O)OC2(c3ccc(Cl)cc3)CCN(CCCC(=O)c3ccc(F)cc3)CC2)CC1)OC1(c2ccc(Cl)cc2)CCN(CCCC(=O)c2ccc(F)cc2)CC1`, the Ki at D(2) dopamine receptor [1] stood at 0.0025 µM; at D(2) dopamine receptor [2], 0.0011 µM; on D(3) dopamine receptor it was 0.0095 µM; at D(4) dopamine receptor, 0.033 µM; at D(1A) dopamine receptor, 0.36 µM.

On to `CCC(=O)OC1(c2ccc(Cl)cc2)CCN(CCCC(=O)c2ccc(F)cc2)CC1`, for which the Ki amounted to 0.0039 µM on D(2) dopamine receptor [1]; 0.0016 µM at D(2) dopamine receptor [2]; 0.041 µM at D(3) dopamine receptor; 0.0025 µM at D(4) dopamine receptor; 0.072 µM at D(1A) dopamine receptor. Besides, in the test with CHO [3], the Ratio Ki came out at 8.

Consider `O=C(CCCCCCC(=O)OC1(c2ccc(Cl)cc2)CCN(CCCC(=O)c2ccc(F)cc2)CC1)OC1(c2ccc(Cl)cc2)CCN(CCCC(=O)c2ccc(F)cc2)CC1`, for which the Ki at D(2) dopamine receptor [1] was 0.0025 µM; at D(2) dopamine receptor [2] it was 0.0029 µM; at D(3) dopamine receptor, 0.0064 µM; on D(4) dopamine receptor, 0.3 µM; at D(1A) dopamine receptor it was 0.92 µM.

Consider `O=C(CCCCCCCCCCCCC(=O)OC1(c2ccc(Cl)cc2)CCN(CCCC(=O)c2ccc(F)cc2)CC1)OC1(c2ccc(Cl)cc2)CCN(CCCC(=O)c2ccc(F)cc2)CC1`, for which the Ki on D(2) dopamine receptor [1] came to 0.12 µM; on D(2) dopamine receptor [2] it was 0.062 µM; on D(3) dopamine receptor, 0.16 µM; at D(4) dopamine receptor, 0.49 µM; at D(1A) dopamine receptor, 1.4 µM.

As for `O=C(CCc1cn(CCOCCOCCOCCOCCn2cc(CCC(=O)OC3(c4ccc(Cl)cc4)CCN(CCCC(=O)c4ccc(F)cc4)CC3)nn2)nn1)OC1(c2ccc(Cl)cc2)CCN(CCCC(=O)c2ccc(F)cc2)CC1`, the Ki on D(2) dopamine receptor [1] was 0.0016 µM; at D(2) dopamine receptor [2], 0.0038 µM; at D(3) dopamine receptor it was 0.019 µM; at D(4) dopamine receptor, 0.046 µM; on D(1A) dopamine receptor, 0.15 µM.

With `CCCCCCCCCC(=O)OC1(c2ccc(Cl)cc2)CCN(CCCC(=O)c2ccc(F)cc2)CC1` [HALOPERIDOL DECANOATE], the Ki at D(2) dopamine receptor [1] was determined as 0.0018 µM; at D(2) dopamine receptor [2] it was 0.00046 µM; on D(3) dopamine receptor it was 0.0035 µM; on D(4) dopamine receptor, 0.0058 µM; at D(1A) dopamine receptor, 0.14 µM.

Regarding `O=C(CCCCCCCCCCCCCCC(=O)OC1(c2ccc(Cl)cc2)CCN(CCCC(=O)c2ccc(F)cc2)CC1)OC1(c2ccc(Cl)cc2)CCN(CCCC(=O)c2ccc(F)cc2)CC1`, the inhibition constant Ki at D(2) dopamine receptor [1] is 0.14 µM; at D(2) dopamine receptor [2], 0.28 µM; at D(3) dopamine receptor, 0.22 µM; at D(4) dopamine receptor, 1.4 µM; at D(1A) dopamine receptor, 6.8 µM.

With `O=C(CCC(=O)OC1(c2ccc(Cl)cc2)CCN(CCCC(=O)c2ccc(F)cc2)CC1)OC1(c2ccc(Cl)cc2)CCN(CCCC(=O)c2ccc(F)cc2)CC1`, the Ki on D(2) dopamine receptor [1] is 0.0067 µM; at D(2) dopamine receptor [2], 0.0054 µM; on D(3) dopamine receptor, 0.014 µM; on D(4) dopamine receptor it was 0.024 µM; on D(1A) dopamine receptor, 0.13 µM. The Ratio Ki with CHO [4] was found to be 2.

For the compound `O=C(CCc1cn(CCCCCCCCn2cc(CCC(=O)OC3(c4ccc(Cl)cc4)CCN(CCCC(=O)c4ccc(F)cc4)CC3)nn2)nn1)OC1(c2ccc(Cl)cc2)CCN(CCCC(=O)c2ccc(F)cc2)CC1`, the Ki on D(2) dopamine receptor [1] turned out to be 0.0013 µM; at D(2) dopamine receptor [2] it was 0.0016 µM; at D(3) dopamine receptor it was 0.0018 µM; at D(4) dopamine receptor it was 0.019 µM; at D(1A) dopamine receptor, 0.049 µM.

`CN(C)CCC(=O)OC1(c2ccc(Cl)cc2)CCN(CCCC(=O)c2ccc(F)cc2)CC1`: the Ki was 0.0019 µM at D(2) dopamine receptor [1]; 0.0018 µM at D(2) dopamine receptor [2]; 0.03 µM on D(3) dopamine receptor; 0.0087 µM on D(4) dopamine receptor; 0.2 µM at D(1A) dopamine receptor.

These data come from ChEMBL document CHEMBL3352709, “Synthesis and binding profile of haloperidol-based bivalent ligands targeting dopamine D(2)-like receptors” (Bioorg Med Chem Lett, 2014).
